Measurements reported in patent US8367887B2, “Normal-tension glaucoma model and method for evaluation of test substances by using same” (Shinshu University, priority 2007, dated 2013).
Counter-ions that a name gives are not always drawn.

Legend:
[1] = test system: retinal ganglion cells; test: Screening of test substances: protection of retinal ganglion cells from NMDA-induced apoptosis in wild-type and NF-κBp50-deficient mice; format: in vivo, mouse; details: 5 mM NMDA into vitreous; for effect of protecting retinal ganglion cells from NMDA-induced apoptosis (conclusion in words): wild-type and NF-κBp50-deficient mice, 24 hours
Description: (§1) Intravitreal NMDA injection was performed. 2 μl of 5 mM solution of NMDA in buffered saline solution (BSS) was injected into the vitreous of the left eye of each mouse aged 2 months. The right eyes were injected with BSS alone. At 24 hours and 4 days after injection, the eyes were enucleated and fixed in 4% paraformaldehyde in PB, followed by dehydration and paraffin embedding. Tranverse sections were made through the optic disc and stained with hematoxylin and eosin (H&E). Cells of 0.35 mm length at 0.3 mm from the edge of the optic disc in the ganglion cell layer were counted except for cells infiltrating the ganglion cell layer. The average number of cells per field was analyzed, and statistical differences were analyzed by the Student's t test.
By intraperitoneal administration, phosphate buffered saline (PBS) as control substance was respectively administered to wild-type mice and NF-κBp50-deficient mice once daily for 7 days. 5 mM of NMDA was directly administered into vitreous of the mice, and then the number of retinal ganglion cells after 24 hours was counted.
By intraperitoneal administration, 10 mg/kg of memantine hydrochloride, which is used as a curative medicine for Alzheimer type dementia and is an antagonist of NMDA receptor as one of glutamic acid receptor, was respectively administered to wild-type mice and […] mice once daily for 7 days. 5 mM of NMDA was directly administered into vitreous of the mice, and then the number of retinal ganglion cells after 24 hours were counted.
100 mg/kg of lomerizine hydrochloride, which is used as a curative medicine for migraine and is a piperazine-type calcium inhibitor, was respectively administered orally via catheters to wild-type mice and NF-κBp50-deficient mice once daily for 7 days. 5 mM of NMDA was directly administered into vitreous thereof, and then the number of retinal ganglion cells after 24 hours was numerated.
By intraperitoneal administration, 10 mg/kg of MK-801, which is NMDA receptor antagonist and is (5S,10R)-[…]-5-methyl-10,11-dihydro-5H-dibenzo[a,d]-cyclo-hepten-5,10-imine hydrogen maleate, was respectively administered to wild-type mice and NF-κBp50-deficient mice once daily for 7 days. 5 mM of NMDA was directly administered into vitreous thereof, and then the number of retinal ganglion cells after 24 hours was counted.
A control group was kept alike with administration for 2 weeks instead of administration of PBS for 7 days under above-mentioned control group. On the other hand, 3 mg/kg of […] was respectively administered to wild-type mice and NF-κBp50-deficient mice once daily for 2 weeks by intraperitoneal administration. 5 mM of NMDA was directly administered into vitreous thereof, and then the number of retinal ganglion cells after 24 hours was counted.

[2] = test system: retinal ganglion cells; test: Susceptibility of NMDA-induced neurotoxicity (intravitreal NMDA, count of live ganglion cells) in wild-type and NF-κBp50-deficient mice; format: in vivo, mouse; details: for cell death in GCL (ganglion cell layer): 2 months old, 10 nmol NMDA intravitreal, 24 hours, FIG. 5
Description: as §1
Since NMDA receptor-mediated excitotoxicity has been reported to contribute to glaucomatous neuropathy and the NMDA receptor-mediated […] leads apoptosis of the neurons, the effect of NF-κBp50 on NMDA-induced neurotoxicity was examined. NMDA has excitotoxicity at a high concentration of 100 nmol which promptly leads cell death. The results of histological examination of the retinas at 24 hours after intravitreal injection of 10 nmol NMDA, which is a relatively low concentration as for NMDA-induced neurotoxicity, are shown in FIG. 5.
The live cells were counted in length of 0.35 mm at 0.3 mm each from the edge of the optic disc. Bar graphs show the number of cells in GCL at time before and 24 hours after NMDA-treatment. The average number of cells per field was analyzed by the two-tailed t-test. Statistical differences were analyzed by the Student's t test. Data are mean±SEM (n=6 to 7 mice). *1p<0.01 versus wild-type mice. *2p<0.01 versus wild-type mice.
[…] of NMDA were directly administered into vitreous respectively, and then the number of live ganglion cells was counted. As a control, the number of live ganglion cells without administration of NMDA was also counted. […] On the other hand, in the case of wild-type mice and NF-κBp50-deficient mice with injection of […] NMDA, which is a relatively low concentration, while almost all of the ganglion cells in wild-type mice survived at 4 days after NMDA treatment, about 60% of the ganglion cells in NF-κBp50-deficient mice were dead within 24 hours by apoptosis and moreover almost all of them were dead within 96 hours.

[3] = wild-type mice and NF-κBp50-deficient mice, injection of 50 mM NMDA into vitreous, FIG. 6

For `C=CC[C@@H]1/C=C(\C)C[C@H](C)C[C@H](OC)[C@H]2O[C@@](O)(C(=O)C(=O)N3CCCC[C@H]3C(=O)O[C@H](/C(C)=C/[C@@H]3CC[C@@H](O)[C@H](OC)C3)[C@H](C)[C@@H](O)CC1=O)[C@H](C)C[C@@H]2OC` [KF506], the “retinal ganglion cells dead by apoptosis within 24 hours after administration of NMDA” value (“retinal ganglion cells dead” below) ([1]; NF-κBp50-deficient mice, 3 mg/kg intraperitoneal once daily for 2 weeks, FIG. 7f) was “no more than 34%” and the “retinal ganglion cells dead” value ([1]; wild-type mice, 3 mg/kg intraperitoneal once daily for 2 weeks, FIG. 7f) was “about 5%”.
In the case of `C[C@]12N[C@H](Cc3ccccc31)c1ccccc12` [MK-801, (5S,10R)-(−)-5-methyl-10,11-dihydro-5H-dibenzo[a,d]-cyclo-hepten-5,10-imine hydrogen maleate], the “retinal ganglion cells dead” value ([1]; NF-κBp50-deficient mice, 10 mg/kg intraperitoneal once daily for 7 days, FIG. 7d) was “no more than 9%”, the “effect of protecting retinal ganglion cells from NMDA-induced apoptosis (conclusion in words)” value [1] was “had pharmacological effects of protecting retinal ganglion cells from NMDA-induced apoptosis” and the “retinal ganglion cells dead” value ([1]; wild-type mice, 10 mg/kg intraperitoneal once daily for 7 days, FIG. 7d) was “about 2%”.
`CN[C@H](CC(=O)O)C(=O)O` [NMDA, N-methyl D aspartate] was tested, and the “cell death in GCL (ganglion cell layer)” value ([2]; NF-κBp50-deficient mice) was “markedly induced cell death in GCL”, the “ganglion cells dead within 96 hours” value ([2]; NF-κBp50-deficient mice, injection of 5 nM NMDA into vitreous, FIG. 6) was “almost all” and the “ganglion cells dead within 24 hours by apoptosis” value ([2]; NF-κBp50-deficient mice, injection of 5 mM NMDA into vitreous, FIG. 6) was “about 60%”. For the same compound, the “ganglion cells dead by apoptosis within 24 hours after NMDA treatment” value [2, 3] was “about half”, the “ganglion cells dead by apoptosis within 96 hours (4 days)” value [2, 3] was “almost all” and the “cell death in GCL (ganglion cell layer)” value ([2]; wild-type mice) was “no significance was observed”. For the same compound, the “ganglion cells survived at 4 days after NMDA treatment” value ([2]; wild-type mice, injection of 5 mM NMDA into vitreous, FIG. 6) was “almost all”.
For `COc1ccc(CN2CCN(C(c3ccc(F)cc3)c3ccc(F)cc3)CC2)c(OC)c1OC` [lomerizine hydrochloride], the “retinal ganglion cells dead” value ([1]; NF-κBp50-deficient mice, 100 mg/kg orally via catheters once daily for 7 days, FIG. 7c) was “no more than 28%” and the “retinal ganglion cells dead” value ([1]; wild-type mice, 100 mg/kg orally via catheters once daily for 7 days, FIG. 7c) was “about 2%”.
In the case of `CC12CC3CC(C)(C1)CC(N)(C3)C2` [memantine hydrochloride], the “retinal ganglion cells dead” value ([1]; NF-κBp50-deficient mice, 10 mg/kg intraperitoneal once daily for 7 days, FIG. 7b) was “about 15%”, the “effect of protecting retinal ganglion cells from NMDA-induced apoptosis (conclusion in words)” value [1] was “had pharmacological effects of protecting retinal ganglion cells from NMDA-induced apoptosis” and the “retinal ganglion cells dead” value ([1]; wild-type mice, 10 mg/kg intraperitoneal once daily for 7 days, FIG. 7b) was “about 3%”.
